Data on 88 molecules can be found in a melting point compilation (Tetko et al.; mined from patent text by program, amines drawn as free bases though some values may be those of a salt).

One may read the melting point as the temperature of the solid-liquid transition. `CCOC(=O)C1CCNC(=O)C1=O` (stereo not drawn): the melting point is 148 to 151 °C.

The molecule `CCC(CC)(CC(=O)Nc1cccc(OCc2ccc3ccc(OC)cc3n2)c1)C(=O)O` showed a melting point of 96 to 97 °C.

In turn, `Clc1ncnc(Cl)c1Cl` had a melting point of 50 to 52 °C.

`OC(c1ccc(Br)cc1)c1ccc(Br)cc1`: the melting point was 112 to 113 °C.

In the case of `CN(Cc1cc(C(F)(F)F)cc(C(F)(F)F)c1)C(=O)c1cnc2ccccc2c1-c1ccccc1`, the melting point lay within 96 to 97 °C.

Turning to `CC(=O)NCc1ccc(CC[N+]2([O-])CCC(C3CCc4ccccc43)CC2)cc1` (stereo not drawn), the melting point lay in the range of 130 to 131 °C.

`CCOC(=O)c1cc(=O)c2c(ccc3c4ccccc4c(=O)oc32)o1` came in with a melting point of 240 to 242 °C.

In turn, `CC(C)(C)OC(=O)NCC(=O)Nc1ccccc1OCc1ccccc1` displayed a melting point of 80 to 82 °C.

Take `CCCCN(CCCC)c1ccc(C=Cc2ccc(C=CC3=C(C#N)C(=C(C#N)C#N)OC3(C)C)cc2)c(OC)c1`: the melting point is 258 to 260 °C.

For `CS(=O)(=O)c1ccc(-c2cnn(-c3ccc(S(N)(=O)=O)cc3)c(=O)c2-c2ccc(F)cc2)cc1`, the melting point was in the range of 213 to 216 °C.

`Nc1nc2c(s1)CCN(CC=Cc1cc(Br)c(N)c(Br)c1)CC2` yielded a melting point of 198 to 199 °C.

In turn, `C=CCCCCNC(=O)c1cnc(OCC(O)CNC(C)(C)C)s1` (stereo not drawn) had a melting point of 80 to 81 °C.

As to `O=C(Nc1ccc(-n2nc(C(F)(F)F)cc2C(F)(F)F)cc1)c1c(F)cccc1F`, the melting point was 127 to 128 °C.

`CNS(=O)(=O)c1cccc(NC(=O)c2cnn3c(C(F)F)cc(-c4ccc(C(F)(F)F)cc4)nc23)c1` returned a melting point of 255 °C.

`OC[C@H]1CC[C@H](c2ccc(F)cc2)CC1` displayed a melting point of 65 to 70 °C.

In turn, `CSc1nn2c(N)cc(C)nc2c1S(=O)(=O)c1ccc2ccccc2c1` displayed a melting point greater than 230 °C.

`COC(=O)c1cc(Br)ncc1F`: the melting point lay within 43 to 46 °C.

With `O=C(O)CCCCCCCSc1nc(-c2ccccc2)c(-c2ccccc2)[nH]1`, the melting point fell in the range of 160 to 162 °C.

Consider `COC(=O)c1ccccc1S(=O)(=O)NC(=O)Nc1nc(C)c2cc(C)oc2n1`, for which the melting point is 197 to 198 °C.

As to `CN(Cc1ccc(NC(=O)C2=Cc3cc(OCc4ccccc4Cl)ccc3S(=O)(=O)CC2)cc1)C1CCOCC1`, the melting point fell in the range of 205 to 207 °C.

With `CSc1ccc(-c2ccc(S(=O)(=O)CC(CO)N(O)C=O)cc2)cc1` (stereo not drawn), the melting point fell in the range of 161 to 162 °C.

Molecule `CCCCCC[C@H](CC(=O)OC(C)(C)C)C(=O)N1C(=O)OC[C@@H]1C(C)C` registered a melting point of 50 to 51 °C.

Molecule `O=C(Nc1c(F)cccc1Cl)c1ccc(-n2nc(C(F)(F)F)cc2C2CC2)c(F)c1` yielded a melting point of 148 to 152 °C.

Molecule `CCCc1c(OCCCOCCCOc2c(C(C)=O)ccc(OCC(=O)O)c2CCC)ccc(C(C)=O)c1O` yielded a melting point of 86 to 90 °C.

`N#Cc1c[nH]cc1-c1ccccc1`: the melting point was 123 to 125 °C.

Take `COc1ccc(-c2cc3ncccc3c(O)n2)cc1`: the melting point lay within 295 to 298 °C.

Molecule `COc1ccc(CNc2nc(SC)ncc2C(=O)NCc2ccccn2)cc1Cl` came in with a melting point of 143 to 144 °C.

The molecule `CN(c1nc2ccccc2c(=O)o1)c1ccccc1I` displayed a melting point of 144 to 148 °C.

`Cc1cc(O)n2nc(CS)nc2n1` showed a melting point of 215 °C.

As to `Cc1cc2n[nH]c(=O)n2nc1-c1ccc(C(N)=S)cc1`, the melting point fell in the range of 325 to 329 °C.

`NC(=O)c1ccc(Sc2ccc(Cl)cc2)c(Cl)c1` returned a melting point of 176 to 177 °C.

Consider `C#CCc1c(C)nc2c(OCc3ccccc3CO)cccn12`, for which the melting point lay in the range of 137 to 138 °C.

Regarding `Cc1cc2ccc(Cl)c(Cl)c2[nH]1`, the melting point is 70 to 71 °C.

`CCN=C(SC)N(C)Cc1ccc(Cl)nc1` returned a melting point of 132 to 133 °C.

Turning to `CCCCN=C(CS(C)=O)c1cc2ccccc2cc1O` (stereo not drawn), the melting point is 162 to 164 °C.

Turning to `COc1ccc(CCN(C)CCCc2ccc(NC(=O)c3cccc4c(=O)c5ccccc5[nH]c34)cc2)cc1OC`, the melting point worked out at 114 °C.

Take `CCCCc1oc2ccc([N+](=O)[O-])cc2c1C(=O)c1ccc(OCCCCCN(CCCC)CCCC)cc1`: the melting point is 107 °C.

In turn, `Cc1ccc(S(=O)(=O)OCC2Cc3ccccc3C2)cc1` had a melting point of 95 to 97 °C.

In the case of `O=C(CCC(F)(F)F)Nc1ccccc1`, the melting point is 187 °C.

`N#CC(C#N)C(=O)c1ccoc1` gave a melting point of 98 to 99 °C.

Molecule `O=C1CC(=O)OC(CCl)C1` (single isomer, unassigned; (-)) gave a melting point of 98 to 99 °C.

`CN(C)C(=O)C1(CCC#N)c2ccccc2-c2ccccc21`: the melting point fell in the range of 109 to 110 °C.

Take `Cc1ccc(Sc2nc(Cl)cc(OCCC(C)C)n2)cc1`: the melting point fell in the range of 83 to 86 °C.

Molecule `O=C(O)c1cn(CCc2ccc(C(F)(F)F)cc2)c2cc(C3CC3)nn2c1=O` displayed a melting point of 225 to 230 °C.

`COC(=O)[C@@H]1[C@H](C(C)C)N1S(=O)(=O)c1ccc(C)cc1` (stereo partly drawn) gave a melting point of 52 to 54 °C.

Regarding `Cc1c(N)ccc2c(O)c(C(=O)NCc3ccc(Cl)cc3)cnc12`, the melting point lay in the range of 256 to 258 °C.

`CC(=O)Nc1ccc(-c2cc(C(=O)c3ccc(S(C)(=O)=O)cc3)sc2N2CCOCC2)cc1` returned a melting point of 177 °C.

Molecule `Cc1[nH]c(C(=O)NCCN2CCCCC2)c(C)c1-c1nc2ccc(C(=O)c3ccccc3)cc2[nH]1` registered a melting point of 230 to 237 °C.

Molecule `COC[C@H]1CN(c2ccc(CCC[C@@H](C)O)cc2)C(=O)O1` came in with a melting point of 65 °C.

The molecule `CCOC(=NC(=O)c1ccc(Cl)cc1)N1Cc2ccccc2-c2ccccc2C1` returned a melting point of 106 to 107 °C.

For the molecule `O=C(CBr)Nc1cccc(O)c1`, the melting point fell in the range of 167 to 170 °C.

The molecule `CS(=O)(=O)c1ccc(-c2cnn(-c3ccc(F)c(F)c3)c(=O)c2Cc2ccc(F)c(F)c2)cc1` came in with a melting point of 177 to 179 °C.

In turn, `C[C@@H]1CCC[C@H](C)N1Cc1ccc2cc(NC(=O)N3CCC(c4ccc(Cl)cc4)CC3)ccc2c1` gave a melting point of 199 to 200 °C.

`C=C(C)OC(=O)N1c2cc(Cl)ccc2NC(=S)[C@@H]1C` returned a melting point of 148 to 150 °C.

Consider `c1cc(COc2cccc(-c3nnn[nH]3)c2)cc(OCc2ccc3ccccc3n2)c1`, for which the melting point was in the range of 169 to 172 °C.

`O=C(N[C@H]1CC[C@H](CCN2CCN(c3nccc4c3CCO4)CC2)CC1)c1ccc(Cl)cc1Cl` showed a melting point of 204 °C.

Molecule `CCCC1=C(C#N)C(c2ccccc2OC)c2c[nH]nc2N1` (stereo not drawn) gave a melting point of 203 °C.

Molecule `CN(C)C(=N)Nc1ccccc1-c1cccc(S(C)(=O)=O)c1` showed a melting point of 113 to 114 °C.

`CS(=O)(=O)C(C#N)=Cc1c(Cl)n(Cc2ccccc2)c2ccccc12` came in with a melting point of 206 °C.

Take `Clc1ccn(-c2cccnc2)n1`: the melting point was in the range of 98 to 106 °C.

In the case of `Clc1ccc(Nc2nnc(Cc3ccncc3)c3cccnc23)cc1`, the melting point is 196 to 197 °C.

With `O=C(CCNCc1cc(F)cc(F)c1)Nc1cccc2c1C(=O)c1c(NC(=O)CCNCc3cc(F)cc(F)c3)cccc1C2=O`, the melting point lay in the range of 190 to 191 °C.

`COc1cc(N)ccc1-c1cnc(C)s1`: the melting point lay in the range of 125 to 129 °C.

Turning to `c1ccc(-c2noc(COc3ccc(CCCn4ccnc4)cc3)n2)cc1`, the melting point is 124 to 125 °C.

The molecule `CC(C)C(=O)NCCCCn1c(CO)nc2c(N)nc3ccccc3c21` came in with a melting point of 222 to 224 °C.

`C=CCN(c1ccccc1)c1cc(C(N)=O)c(C(=O)O)cc1N(CC=C)c1ccccc1`: the melting point was 114 to 116 °C.

`O=P1(O)Oc2c(Cl)cc(Cc3ccccc3)cc2-c2ccccc21` had a melting point of 240 °C.

The molecule `Cc1c(Cl)ccnc1C(=O)NCCNC(=O)OC(C)(C)C` displayed a melting point of 134 to 135 °C.

Take `COC(=O)c1ccc2cc(-c3cc4c(c(C56CC7CC(CC(C7)C5)C6)c3)OCO4)ccc2c1`: the melting point is 217 to 220 °C.

Molecule `COc1cc(C(=O)O)ccc1CN1CCOc2ccc(NC(=O)OC3CCCC3)cc21` had a melting point of 221 to 222 °C.

The molecule `Nc1nc2c(ncn2OC(CO)CCP(=O)(O)O)c(=O)[nH]1` (stereo not drawn) displayed a melting point of 177 to 178 °C.

`CC(Oc1ccccc1Cl)C(=O)OC1CC(O)C=C2C=CC(C)C(CCC3CC(O)CC(=O)O3)C21` (mixture of isomers) displayed a melting point of 152 to 155 °C.

The molecule `CSc1ncccc1NC(=O)CCCCCSc1nc2ccccc2[nH]1` yielded a melting point of 121 to 123 °C.

In turn, `CC1=C(CCO)c2cc(F)ccc2C1` showed a melting point of 65 to 66.5 °C.

`CN(C)C(=O)CCN1CCC(C(O)(c2ccc(F)cc2)c2ccc(F)cc2)CC1` had a melting point of 134 to 135 °C.

For the molecule `CCOC(=O)Oc1ccc(S(=O)(=O)N2c3cc(C(F)(F)F)ccc3-n3cccc3C2CC)cc1` (stereo not drawn), the melting point lay within 88 to 90 °C.

For `CCOC(=O)c1[nH]c2ccccc2c1CN(Cc1cc(C(F)(F)F)cc(C(F)(F)F)c1)c1nnn(C)n1`, the melting point was determined as 83 °C.

`COc1ccc(C[C@@H](NC(=O)c2ccc(F)c3ccccc23)[C@@H](O)c2ccc(F)cc2)cc1` (racemic) registered a melting point of 210 to 211 °C.

As for `CC(C(=O)O)c1ccc2c(c1)C(=O)Cc1ccccc1S2` (stereo not drawn), the melting point is 130 to 132 °C.

Molecule `COc1cc(C(=O)c2nc(Br)c3ccccn23)ccc1[N+](=O)[O-]` displayed a melting point of 189 °C.

`Cc1nc(S(=O)(=O)N(C(=O)c2ccccc2)c2c(F)cccc2F)nn1-c1ncccn1` returned a melting point of 218 to 221 °C.

Molecule `Cc1c2c(nn1C)c(N)nc1ccccc12` returned a melting point greater than 250 °C.

Consider `COc1cc2c(c(Br)c1OC(C)=O)Sc1cc(C)ccc1N2`, for which the melting point lay within 193 to 194 °C.

For `CCCCCCCCOc1ccc(C(=O)COC(C)=O)cc1`, the melting point lay within 44 to 45 °C.

With `CCCC1Cc2cc(OCC(=O)O)c(Cl)c(Cl)c2C1=O` (stereo not drawn), the melting point fell in the range of 199 to 203 °C.

`Cc1nc(C(F)(F)F)ccc1C(=O)C1=C(O)C2CC2C(C)(S(C)=O)C1=O` (stereo not drawn) had a melting point of 160 °C.

In turn, `COC1CCC2(C)C(=CC(=O)C3C2CCC2(C)C(OC(C)=O)CCC32)C1` (stereo not drawn) returned a melting point of 168 to 170 °C.

With `Clc1ccc([Si](Cl)(Cl)Cl)cc1`, the melting point was in the range of 60 to 61 °C.
